Laboratory results reported in patent publication EP4681700A1, “GSE24.2-DERIVED PEPTIDE AND USES THEREOF” (Consejo Superior De Investigaciones Científicas - CSIC, priority 2023, dated 2026).

Experiments:
[1] = test system: RLE6TN cells; experiment: TERT and TERC mRNA expression by quantitative PCR in transduced cells; assay type: cell-based, rat; conditions: corrected by GAPDH, normalised to CT; for expression of Tert mRNA: Figure 3A; for expression of Terc: p<0.05, Figure 3B
Text: (§1) RNA was isolated from control cells or cells transduced with vectors expressing GFP or the GSE4 and P3 peptides. The corresponding cDNAs, which were used to determine the expression levels of the mRNA encoding TERT (Figure 3, panels A and C) and TERC (Figure 3, panels B and D) by means of quantitative PCR, were synthesised from these RNAs. Expression levels were corrected by levels corresponding to the mRNA encoding GAPDH, used as a control. Relative values were normalised with respect to values obtained for non-transduced control cells (CT). Panels A and B show the results obtained for RL6TN cells and panels C and D show the results corresponding to HaCaT cells.
For assays performed in RLE6TN cells, shown in Figures 3A and 3B, oligonucleotides corresponding to SEQ ID Nos: 23, 24 for TERT, SEQ ID Nos:27, 28 for TERC, and SEQ ID Nos:43, 44 for GAPDH were used in quantitative PCR assays.

[2] = test system: HaCaT cells; experiment: TGFβ-induced expression of TGFβ receptor and MCP1 mRNA (epithelial/mesenchymal transition), quantitative PCR; assay type: cell-based, human; conditions: 5 ng/mL TGFβ, 48 of culture; for induction of expression of TGFBR2 mRNA after incubating the cells with TGFβ: Figure 4B; for induction of expression of MCP1 mRNA after incubating the cells with TGFβ: p<0.05 for P3, Figure 4B
Text: (§2) The ageing of some tissues is accompanied by fibrotic processes in which fibroblasts and myofibroblasts accumulate and in which epithelial/mesenchymal transition of epithelial cells is induced. This process occurs, for example, in idiopathic pulmonary fibrosis and in fibrosis processes as a result of skin exposure to ionising radiation. Many of these processes are mediated by the secretion of the cytokine TGFβ (transforming growth factorβ). The possible effect of the peptides on these processes was studied by incubating cells with TGFβ (R&D Systems, Bio-Techne, Minneapolis; MN, USA) and studying the expression of two mRNAs induced by this cytokine, i.e., the TGFβ receptor (TGFβR1/2) and the cytokine MCP1 (also referred to as CCL2) by means of reverse transcription of RNA and quantitative PCR.
(§3) Control cells or cells transduced with GFP expression vectors, or the GSE4 and P3 peptides were cultured in the absence or presence of a concentration of 5 ng/mL of the TGFβ factor (identified with the symbol + in Figure 4) to induce epithelial/mesenchymal transition. After 48 of culture, RNA was obtained from the cells and converted into cDNA by means of reverse transcription. The expression levels of the mRNA encoding TGFBR-1/2 (TGFβ-receptor 1 or 2) and MCP1 (monocyte chemoattractant protein-1, also referred to as CCL2: C-C motif chemokine ligand 2) were determined by quantitative PCR. The values obtained were corrected by those corresponding to the control mRNA (GAPDH) and normalised by the expression in control cells (CT).
(§4) In the assays shown in Figures 4A, for RLE6TN cells, oligonucleotides SEQ ID Nos 31 and 32 for TGFBR1, 35 and 36 for MCP1, and 43 and 44 for GAPDH were used in quantitative PCR. To obtain the results shown in Figure 4B, for HaCaT cells, oligonucleotides SEQ ID Nos: 29 and 30 for TGFBR2, SEQ ID Nos: 33 and 34 for MCP1, and SEQ ID Nos: 41y 42 for GAPDH b were used.

[3] = test system: rat lung epithelial cells RL6TN; experiment: yH2AX Western blot (DNA damage) in cells transduced with lentiviral peptide expression vectors; assay type: cell-based; conditions: 6 hours, relative to β-actin, normalised to CT
Description: In the experiment shown in Figure 1, rat lung epithelial cells RL6TN were transduced with lentiviral vectors directing the expression of the peptides under study and the corresponding controls. The presence of γH2AX was then determined by means of Western blot assays.
(§5) RL6TN cells were transduced with lentiviral vectors directing the expression of the different peptides under study (sequences derived from pCCL-hPGK.GSE4.wPREchim, SEQ ID NO. 62, in which the oligonucleotides corresponding to each peptide, shown in Table 4, SEQ ID Nos: 46-60, have been included between restriction sites Sall and Xbal) or of the GFP protein (green fluorescent protein) (PGK-EGFP sequence, SEQ ID NO. 63) as negative control. 600,000 non-transduced (control, CT) cells or cells transduced with the different lentiviral vectors were cultured for 6 hours in the absence (Panel A) or presence of 4 µg/mL of bleomycin (Merck, Burlington, MA. USA) (Panel B). After this culture period, the cells were lysed and the amount of yH2AX was determined by means of Western blot using an yH2AX-specific antibody (Cell Signalling Technology, Danvers, MA, USA). Expression of the β-actin protein as loading control was simultaneously determined using a specific antibody (Santa Cruz Biotechnology, Dallas, TX, USA). Protein expression was quantified using a luminometer. The expression of yH2AX in each sample was calculated based on the amount of β-actin. These relative values were normalised to the value corresponding to control cells not treated with bleomycin.

[4] = test system: HaCaT cells; experiment: yH2AX Western blot (DNA damage signalling) in transduced keratinocytes; assay type: cell-based, human; conditions: 6 hours
Text: as §5
DNA damage signalling studies were reproduced in human skill keratinocyte cell line HaCaT. This cell line is often used to study skin's response to environmental and pathogenic agents. HaCaT cells were transduced with lentiviral vectors which allow the expression of the P3 peptide, the GSE4 peptide, as a positive control, or GFP as a negative control. 100,000 non-transduced (CT) cells or cells transduced with the various peptides were cultured in the absence (Figure 2A) or presence of 50 µg/mL of bleomycin (Figure 2B) for 6 hours. Subsequently, the cells were lysed and the amount of yH2AX present in the extracts was determined by Western Blot in the same way as indicated for the assays in RL6TN cells described above.

[5] = test system: HaCaT cells; experiment: TERT and TERC mRNA expression by quantitative PCR in transduced cells; assay type: cell-based, human; conditions: corrected by GAPDH, normalised to CT; for expression of Terc: p<0.001 for P3 only, Figure 3D; for expression of TERT: p<0.01 for both peptides, Figure 3C
Text: as §1
The results obtained for HaCaT cells are depicted in Figures 3C and 3D where oligonucleotides corresponding to SEQ ID Nos: 21, 22 for TERT, SEQ ID Nos: 25, 26 for TERC, and SEQ ID Nos: 41, 42 for GAPDH were used. […] This difference is statistically significant for both peptides in the case of TERT (**, p<0.01, ANOVA test and Dunnett's post-hoc test) and for the P3 peptide in the case of TERC (***, p<0.001, ANOVA test and Dunnett's post-hoc test).

[6] = test system: RLE6TN cells; experiment: IL-6 mRNA expression by quantitative PCR in transduced cells; assay type: cell-based, rat; conditions: Figure 5A
Description: (§6) Another important component of tissue ageing is the production of pro-inflammatory interleukins that induce the presence of basal inflammation in tissues. This inflammatory situation also occurs in some diseases of premature ageing and in response to environmental aggressions. Interleukin-6 (IL-6) is one of the main pro-inflammatory molecules and, for this reason, the possible effect of the expression of the peptides on the synthesis of this molecule was determined. In these experiments, the expression of the mRNA encoding IL-6 in cells transduced with the expression vectors of the P3 peptide and controls was determined.
(§7) RNA was obtained from RL6TN cells (Figure 5, panel A) or HaCaT cells (Figure 5, panel B) not transduced (CT) or transduced with lentiviral vectors expressing GFP or the GSE4 or P3 peptides. cDNA was synthesised from each RNA by reverse transcription and the amount of mRNA encoding IL-6 was quantified by quantitative PCR as described in Examples 2 and 3 above.
(§8) The obtained results are shown in Figures 5A (RLE6TN cells) and 5B (HaCaT cells). In the assays with RLE6TN cells, oligonucleotides with SEQ ID Nos: 39 and 40 for IL-6 and SEQ ID Nos: 43 and 44 for GAPDH were used for quantitative PCRs. In the assay performed with HaCaT cells, oligonucleotides with SEQ ID Nos: 37 and 38 for IL-6 and SEQ ID Nos: 41 and 42 for GAPDH were used.

[7] = test system: HaCaT cells; experiment: as above; assay type: cell-based, human; conditions: Figure 5B
Description: as §6, §7, §8

[8] = test system: RLE6TN cells; experiment: TGFβ-induced expression of TGFβ receptor and MCP1 mRNA (epithelial/mesenchymal transition), quantitative PCR; assay type: cell-based, rat; conditions: 5 ng/mL TGFβ, 48 of culture; for induction of expression of Mcp1 mRNA after incubating the cells with TGFβ: p<0.01 for P3 and GSE4, Figure 4A; for induction of expression of Tgfbr1 mRNA after incubating the cells with TGFβ: p<0.05 for P3, Figure 4A
Text: as §2, §3, §4

[9] = 4 µg/mL of bleomycin, Figure 1B
[10] = culture control conditions (absence of bleomycin), Figure 1A
[11] = baseline damage (absence of bleomycin), Figure 2A

| Sequence | expression of Tert mRNA [1] | expression of Terc [1] | induction of expression of TGFBR2 mRNA after incubating the cells with TGFβ [2] | induction of expression of MCP1 mRNA after incubating the cells with TGFβ [2] | levels of yH2AX [3, 9] | levels of yH2AX [3, 10] | DNA damage signalling (amount of yH2AX) ([4]; 50 µg/mL of bleomycin, Figure 2B) | DNA damage signalling (amount of yH2AX) [4, 11] | expression of Terc [5] | expression of TERT [5] | expression of IL-6 mRNA [6] | expression of IL-6 mRNA [7] | induction of expression of Mcp1 mRNA after incubating the cells with TGFβ [8] | induction of expression of Tgfbr1 mRNA after incubating the cells with TGFβ [8] |
| --- | --- | --- | --- | --- | --- | --- | --- | --- | --- | --- | --- | --- | --- | --- |
| DKPSNPSSHE [P3, GSE24.2-derived peptide of 10 amino acids, expressed in cells from a lentiviral vector] | an increase was also observed | significant increase | decreases the induction of expression of both markers | decreases the induction of expression of both markers | causes a decrease in the levels of yH2AX | causes a decrease in the levels of yH2AX | reduces DNA damage signalling | reduces DNA damage signalling | caused an increase | caused an increase | decreased the expression of IL-6 mRNA | decreased the expression of IL-6 mRNA | decreases the induction of expression of both markers | decreases the induction of expression of both markers |
| GFINLDKPSNP [GSE4, reference compound] | an increase was also observed | significant increase | also causes this inhibitory effect of the response to TGFβ | also causes this inhibitory effect of the response to TGFβ | This decrease is greater than that caused by the expression of the GSE4 peptide | This decrease is greater than that caused by the expression of the GSE4 peptide |  | the reduction is greater than that caused by the expression of GSE4 | caused an increase | caused an increase | decreased the expression of IL-6 mRNA | decreased the expression of IL-6 mRNA | also causes this inhibitory effect of the response to TGFβ | also causes this inhibitory effect of the response to TGFβ |
